Publication PMC9884808, “Pharmacokinetics, tissue distribution, and antitumor activity of a novel compound, NY-2, in non-small cell lung cancer” (Frontiers in Pharmacology, 2023)
Marks after values point to notes of the source that are not given here.

How the values were obtained:
A549 cells [1] = assay: LDH activity assay; format: cell-based, human; settings: 48 h, increasing concentrations, vs control
Description: Cell viability was measured by the MTT assay. HCT116, HL7702, A549, H1993, HCC827, and H460 cells were dispensed into 96-well plates at a density of 1 × 10^5 cells/mL. After 24–48 h incubation, cells were treated with the compounds at different concentrations for the indicated periods. An assay kit (WLA073, Wanlei Co., Liaoning, China), was used according to the manufacturer’s instructions to measure LDH activity, The absorbance at 450 nm was measured with a microplate reader (Elx-800, Bio-Rad, China).

A549 cells [2] = assay: Colony formation assay; format: cell-based, human; settings: 2.5, 5, 10 μM; 9 days of growth
A549 cells [3] = assay: Transwell invasion assay; format: cell-based, human; settings: 48 h
Description: For the transwell invasion assay, Matrigel (50 mg/L) was diluted 1:8 with serum-free medium, and 60 μL of diluted Matrigel was pipetted into each transwell (Corning, NY, United States) and incubated overnight. The upper chamber was seeded with 1× 10^5 cells that had been starved for 24 h in 100 µL of serum-free medium, and 700 µL of medium with 10% FBS was added to the lower compartment. After cultivation for 48 h at 37°C, the cells in the upper chamber were removed with a cotton swab, and the cells on the lower surface of the filter were fixed with methanol for 20 min and stained with 0.1% crystal violet after drying. Excess stain was eluted with 33% acetic acid, and the absorbance was measured at 490 nm.

A549 cells [4] = settings: 28 days
Description: The experimental groups included the normal (no tumor cells, vehicle) group, the model (tumor cells, vehicle) group, NY-2-treated, and paclitaxel-treated groups, with six mice in each group. After 7 days for adaptation, 200 µL of A549 cells (2× 10^6 cells/mice) in serum-free medium were injected into the tail vein except for those in the normal group. Drug or vehicle administration via tail vein was started on the next day. The normal group and model group were given the same amount of sterile water containing 1% DMSO and 1% Tween as vehicle control. […] Injections were done every other day. The general conditions of the nude mice, with regard to activity and food ingestion, were observed every day, and their body weight was measured every other day.
KM mice were treated with ZLDI-8 or NY-2 by tail vein injection (6 mg/kg) for 7 days, then the mice were euthanized and liver and kidney tissues were removed and sectioned. For the experiment with BALB/c nude mice, the tail vein injections of NY-2 (6 mg/kg) were continued for 28 days, and the lungs, tumor, heart, liver, and kidney were removed. […] Sections for staining were dewaxed with xylene and then rehydrated, and hematoxylin-eosin staining was performed, after which the sections were again dehydrated in ethanol and cleared with xylene before being mounted on a slide, cover-slipped and examined microscopically. The remainder of the tumors and tissues was frozen in liquid nitrogen for other studies.

[5] = Stability of plasma samples (LC-MS/MS method validation); format: in vitro ADME, rat; settings: room temperature 12 h, auto-sampler 4°C 3 days, -20°C 14 days, three freeze-thaw cycles
Source text: We used the online ADME prediction tool Swiss AMDE (http://www.swissadme.ch/index.php) (SwissADME, 2017) to analyze the physicochemical descriptors and ADME parameters of NY-2 and ZLDI-8, to predict their pharmacokinetic properties, drug-like nature, and medicinal chemistry. […] Male Sprague-Dawley rats weighing 240 ± 20 g were purchased from Liaoning Changsheng Biotechnology Co., Ltd. (Liaoning, China, animal license #SCXK-2015-0001). Rats were used for the tissue distribution and pharmacokinetics experiments because of their larger body fluid volume. The rats were fasted for 12 h before the experiment but allowed to drink water freely. […] Plasma samples were subjected to a protein precipitation method for the quantitative analysis of ZLDI-8 and NY-2 by LC-MS/MS (API 3200MD, AB Sciex, United States). […] The linear equation and correlation coefficient (r) of the regression curve were calculated from these concentrations and the corresponding […] data. The specificity, lower limit of quantification (LLOQ), linear range, precision, accuracy, matrix effects, extraction recovery, stability of analytes during the whole process of storage, as well as treatment in a biological matrix and solution were determined to verify the reliability of the compound concentrations in vivo. […]

[6] = nude mice, NY-2 6 mg/kg, paclitaxel 1 mg/kg, n=6, mean ± SEM

Row | Structure (SMILES) | LDH activity in cell culture supernatants (A549 cells [1]) | colony formation of A549 cells (A549 cells [2]) | invasion of A549 cells (A549 cells [3]) | Body weight before dissection (A549 cells [4]; nude mice with A549 lung metastasis, tail vein every other day, NY-2 6 mg/kg, paclitaxel 1 mg/kg, n=6, mean ± SEM) | Heart as a proportion of body weight (A549 cells [4]; [6]) | Kidney as a proportion of body weight (A549 cells [4]; [6]) | Liver as a proportion of body weight (A549 cells [4]; [6]) | Lung as a proportion of body weight (A549 cells [4]; [6]) | Quality of the heart (A549 cells [4]; [6]) | Quality of the kidney (A549 cells [4]; [6]) | Quality of the liver (A549 cells [4]; [6]) | Quality of the lung (A549 cells [4]; [6]) | average percentage of metastatic lung surface area to the total lung area (A549 cells [4]; nude mice, A549 tail vein, NY-2 6 mg/kg every other day, model group 12.91 ± 11.93%) | infiltration of A549 cells in the lung tissue (H&E) (A549 cells [4]; nude mice, NY-2 6 mg/kg, paclitaxel 1 mg/kg) | toxic effects on the heart, liver or kidney (H&E) (A549 cells [4]; nude mice, tail vein injection 6 mg/kg) | stability of plasma samples [5]
1 | Cc1c(C=C2C(=O)NC(=S)NC2=O)c2ccccc2n1CCOc1ccc(F)cc1 [NY-2] | increased in a concentration-dependent manner | inhibit colony formation of A549 cells in a concentration-dependent manner | inhibit the invasion and migration of A549 cells in a concentration-dependent manner | 23.48 ± 0.50 g | 0.56 ± 0.03 10^-2 | 1.74 ± 0.03 10^-2 | 5.45 ± 0.05# 10^-2 | 0.67 ± 0.03 10^-2 | 0.13 ± 0.01 g | 0.41 ± 0.01 g | 1.28 ± 0.04 g | 0.16 ± 0.01 g | 0.25 ± .62% | no infiltration of A549 cells in the lung tissue | no obvious toxic effects | stable under a variety of analytical conditions
2 | Cc1ccc(OCCn2c(C)c(C=C3C(=O)NC(=S)NC3=O)c3ccccc32)c(C)c1 [ZLDI-8, reference compound] |  |  |  |  |  |  |  |  |  |  |  |  |  |  |  | stable under a variety of analytical conditions
